Experimental findings from US9365583B2, “Substituted pyrazoles and uses thereof” (Genentech, Inc., priority 2013, dated 2016) are described below.

The assay deals with T1, N-terminally GST-tagged DLK (catalytic domain amino acid 1-520) (Homo sapiens, UniProt Q12852).
T1 construct: N-terminally GST-tagged DLK (catalytic domain amino acid 1-520); purchased Carna Bioscience
T1 sequence (Q12852 1-520): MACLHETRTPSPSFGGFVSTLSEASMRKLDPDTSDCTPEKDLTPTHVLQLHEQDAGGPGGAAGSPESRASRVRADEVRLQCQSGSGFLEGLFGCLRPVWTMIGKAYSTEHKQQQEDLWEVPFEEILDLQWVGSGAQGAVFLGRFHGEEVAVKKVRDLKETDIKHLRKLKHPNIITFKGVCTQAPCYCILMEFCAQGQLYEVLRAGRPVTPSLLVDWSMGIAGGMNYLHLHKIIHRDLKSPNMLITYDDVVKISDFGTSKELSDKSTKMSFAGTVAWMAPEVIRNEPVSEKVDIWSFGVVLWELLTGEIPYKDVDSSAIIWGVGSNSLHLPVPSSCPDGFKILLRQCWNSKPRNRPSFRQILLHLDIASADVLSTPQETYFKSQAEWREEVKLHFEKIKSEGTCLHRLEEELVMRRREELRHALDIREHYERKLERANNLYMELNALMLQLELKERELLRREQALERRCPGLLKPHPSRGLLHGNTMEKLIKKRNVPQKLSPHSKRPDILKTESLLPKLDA
The assay can be described thus: DLK TR-FRET inhibition assay. The format is biochemical. The following applies: 5 nM GST-DLK, 40 nM HIS-MKK4 K131M substrate, 30 μM ATP, 60 minutes at ambient temperature. In a few lines: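 5 nM GST-DLK (aa 1-520), 40 nM HIS-MKK4 K131M and 30 μM ATP reacted 60 min at ambient temperature in HEPES pH 7.5 buffer with 10 mM MgCl2, compound 1:3 serially diluted from 20 uM. TR-FRET detection of phospho-MKK4 used Eu-cryptate anti-phospho-MKK4 plus D2 anti-HIS, read after 3 h (665/615 nm).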
In turn, `CC(C)n1nc(-c2cnc(N)c(OC(F)F)c2)cc1[C@H]1[C@@H]2C[C@H](N3C4COCC3C4)C[C@@H]21` [compound 153, 5-(5-((1R,3r,5S,6r)-3-(3-oxa-6-azabicyclo[3.1.1]heptan-6-yl)bicyclo[3.1.0]hexan-6-yl)-1-isopropyl-1H-pyrazol-3-yl)-3-(difluoro-methoxy)pyridin-2-amine] registered a Ki of 0.9 nM.
Consider `CC(C)n1nc(-c2cnc(N)c(C(F)(F)F)c2)cc1[C@H]1[C@@H]2C[C@H](N3CCN(C)CC3)C[C@@H]21` [compound 63, 5-(1-isopropyl-5-((1R,3r,5S,6r)-3-(4-methylpiperazin-1-yl)bicyclo [3.1.0]hexan-6-yl)-1H-pyrazol-3-yl)-3-(trifluoromethyl)pyridin-2-amine], for which the Ki turned out to be 2.21 nM. This Ki lies about 2.5-fold higher than the previous one.
For the compound `CC(C)n1nc(-c2cnc(N)c(OC(F)F)c2)cc1[C@H]1[C@@H]2C[C@H](N3CCCN(C)CC3)C[C@@H]21` [compound 208, 3-(difluoromethoxy)-5-(1-isopropyl-5-((1R,3r,5S,6r)-3-(4-methyl-1,4-diazepan-1-yl)bicyclo[3.1.0]hexan-6-yl)-1H-pyrazol-3-yl) pyridin-2-amine], affinity was put at a Ki of 1.5 nM.
Consider `CO[C@H]1CCN([C@@H]2C[C@@H]3[C@H](C2)[C@H]3c2cc(-c3cnc(N)c(OC(F)(F)F)c3)nn2C(C)C)C1` [compound 214, 5-(1-isopropyl-5-((1R,3s,5S,6S)-3-((S)-3-methoxypyrrolidm-1-yl)bicyclo[3.1.0]hexan-6-yl)-1H-pyrazol-3-yl)-3-(trifluoromethoxy) pyridin-2-amine], for which the Ki stood at 1.5 nM. This lies in the single-digit nanomolar range.
In the case of `CO[C@H]1CCN([C@H]2C[C@@H]3[C@H](C2)[C@H]3c2cc(-c3cnc(N)c(OC(F)F)c3)nn2C(C)C)C1` [compound 212, 3-(difluoromethoxy)-5-(1-isopropyl-5-((1R,3r,5S,6S)-3-((S)-3-methoxypyrrolidin-1-yl)bicyclo [3.1.0]hexan-6-yl)-1H-pyrazol-3-yl)pyridin-2-amine], the Ki is 4.4 nM.
The value for `CO[C@H]1C[C@@H]2[C@H](C1)[C@H]2c1cc(-c2cnc(N)c(OC(F)F)c2)nn1C(C)C` [compound 187, 3-(difluoromethoxy)-5-(1-isopropyl-5-((1R,3r,5S,6r)-3-methoxy-bicyclo[3.1.0]hexan-6-yl)-1H-pyrazol-3-yl)pyridin-2-amine] was 2.2 nM.
In turn, `CC(C)n1nc(-c2cnc(N)c(OC(F)(F)F)c2)cc1[C@H]1[C@@H]2C[C@H](N(C)CC3COC3)C[C@@H]21` [compound 19, 5-(1-isopropyl-5-((1R,3r,5S,6r)-3-(methyl(oxetan-3-ylmethyl)amino)bicyclo[3.1.0]hexan-6-yl)-1H-pyrazol-3-yl)-3-(trifluoro-methoxy)pyridin-2-amine] displayed a Ki of 2.97 nM.
As to `CC(C)n1nc(-c2cnc(N)c(C(F)(F)F)c2)cc1[C@H]1[C@@H]2C[C@H](NCC(F)F)C[C@@H]21` [compound 253, 5-(5-((1R,3r,5S,6r)-3-((2,2-difluoroethyl)amino)bicyclo[3.1.0]hexan-6-yl)-1-isopropyl-1H-pyrazol-3-yl)-3-(trifluoromethyl) pyridin-2-amine], the Ki was 3.4 nM.
In the case of `CC(C)n1nc(-c2cnc(N)c(OC(F)F)c2)cc1[C@H]1[C@@H]2C[C@@H](Cl)C[C@@H]21` [compound 236, 5-(5-((1R,3s,5S,6r)-3-chlorobicyclo [3.1.0]hexan-6-yl)-1-isopropyl-1H-pyrazol-3-yl)-3-(difluoro-methoxy)pyridin-2-amine], the affinity, expressed as Ki, was 15.8 nM. This Ki is about 4.6-fold higher than that of the compound before.
Regarding `CC(C)n1nc(-c2cnc(N)c(OC(F)F)c2)cc1[C@H]1[C@@H]2C[C@H](N3CCO[C@H](C)C3)C[C@@H]21` [compound 77, 3-(difluoromethoxy)-5-(1-isopropyl-5-((1R,3r,5S,6R)-3-((R)-2-methylmorpholino)bicyclo[3.1.0]hexan-6-yl)-1H-pyrazol-3-yl) pyridin-2-amine], the Ki came to 1.3 nM.
The compound `CC(C)n1nc(-c2cnc(N)c(OC(F)(F)F)c2)cc1[C@H]1[C@@H]2C[C@H](N3CCN(C)CC3)C[C@@H]21` [compound 64, 5-(1-isopropyl-5-((1R,3r,5S,6r)-3-(4-methylpiperazin-1-yl)bicyclo [3.1.0]hexan-6-yl)-1H-pyrazol-3-yl)-3-(trifluoromethoxy) pyridin-2-amine] returned a Ki of 0.763 nM.
For the compound `COCCN1CC[C@@]12C[C@@H]1[C@H](C2)[C@H]1c1cc(-c2cnc(N)c(C(F)(F)F)c2)nn1C(C)C` [compound 161, 5-(1-isopropyl-5-((1′R,2r,5′S,6′r)-1-(2-methoxyethyl)spiro [azetidine-2,3′-bicyclo[3,1.0]hexan]-6′-yl)-1H-pyrazol-3-yl)-3-(trifluoro-methyl)pyridin-2-amine], the Ki was found to be 2.5 nM.
`CC(C)n1nc(-c2cnc(N)c(C(F)(F)F)c2)cc1[C@H]1[C@@H]2C[C@H](N3CC(F)(F)C3)C[C@@H]21` [compound 54, 5-(5-((1R,3r,5S,6r)-3-(3,3-difluoro-azetidin-1-yl)bicyclo[3.1.0]hexan-6-yl)-1-isopropyl-1H-pyrazol-3-yl)-3-(trifluoromethyl) pyridin-2-amine] returned a Ki of 7.68 nM.
Next, `CC(C)n1nc(-c2cnc(N)c(OC(F)F)c2)cc1[C@H]1[C@@H]2C[C@@H](N3CC4(CN(C)CCO4)C3)C[C@@H]21` [compound 224, 3-(difluoromethoxy)-5-(1-isopropyl-5-((1R,3s,5S,6r)-3-(8-methyl-5-oxa-2,8-diazaspiro[3.5]nonan-2-yl)bicyclo[3.1.0]hexan-6-yl)-1H-pyrazol-3-yl)pyridin-2-amine]: 3.8 nM; `CC(C)n1nc(-c2cnc(N)c(OC(F)F)c2)cc1C1[C@H]2CC(N3CCOCC(F)C3)C[C@@H]12` (single isomer, unassigned) [compound 173]: 4.5 nM; `CO[C@H]1CCCN([C@H]2C[C@@H]3[C@H](C2)[C@H]3c2cc(-c3cnc(N)c(C(F)(F)F)c3)nn2C(C)C)C1` [compound 286, 5-(1-isopropyl-5-((1R,3r,5S,6S)-3-((S)-3-methoxypiperidin-1-yl)bicyclo[3.1.0]hexan-6-yl)-1H-pyrazol-3-yl)-3-(trifluoromethyl) pyridin-2-amine]: 3.4 nM.
In turn, `CC(C)n1nc(-c2cnc(N)c(C(F)(F)F)c2)cc1[C@H]1[C@@H]2C[C@@H](N3CCN(C)C4(COC4)C3)C[C@@H]21` [compound 180, 5-(1-isopropyl-5-((1R,3s,5S,6r)-3-(5-methyl-2-oxa-5,8-diazaspiro [3.5]nonan-8-yl)bicyclo[3.1.0]hexan-6-yl)-1H-pyrazol-3-yl)-3-(trifluoromethyl)pyridin-2-amine] gave a Ki of 5.8 nM. Compared with the last compound, the Ki is about 1.7-fold higher.
In turn, `Nc1ncc(-c2cc([C@H]3[C@@H]4C[C@H](N5CCOCC5)C[C@@H]43)n(C3CCCC3)n2)cc1OC(F)F` [compound 129, 5-(1-cyclopentyl-5-((1R,3r,5S,6r)-3-morpholinobicyclo[3.1.0]hexan-6-yl)-1H-pyrazol-3-yl)-3-(difluoromethoxy)pyridin-2-amine] displayed a Ki of 4.52 nM.
The value for `CC(C)n1nc(-c2cnc(N)c(OC(F)F)c2)cc1[C@H]1[C@@H]2C[C@H](N3CC[C@H](F)C3)C[C@@H]21` [compound 285, 3-(difluoromethoxy)-5-(5-((1R,3r,5S,6S)-3-((S)-3-fluoropyrrolidin-1-yl)bicyclo[3.1.0]hexan-6-yl)-1-isopropyl-1H-pyrazol-3-yl) pyridin-2-amine] was 4.3 nM.
`CC(C)n1nc(-c2cnc(N)c(OC(F)F)c2)cc1[C@H]1[C@@H]2CC(N3CCOCC(F)C3)C[C@@H]21` (single isomer, unassigned) [compound 169] yielded a Ki of 4.1 nM.
`COC1CN([C@@H]2C[C@@H]3[C@H](C2)[C@H]3c2cc(-c3cnc(N)c(OC(F)F)c3)nn2CC2CC2)C1` [compound 155, 5-(1-(cyclopropylmethyl)-5-((1R,3s,5S,6r)-3-(3-methoxyazetidin-1-yl)bicyclo[3.1.0]hexan-6-yl)-1H-pyrazol-3-yl)-3-(difluoromethoxy)pyridin-2-amine]: the Ki was 3.3 nM.
With `CC(C)n1nc(-c2cnc(N)c(OC(F)F)c2)cc1[C@H]1[C@@H]2C[C@H](N3CCN4CCCC4C3)C[C@@H]21` (stereo partly drawn) [compound 260, 3-(difluoromethoxy)-5-(5-((1R,3r,5S,6r)-3-(hexahydropyrrolo [1,2-a]pyrazin-2(1H)-yl)bicyclo [3.1.0]hexan-6-yl)-1-isopropyl-1H-pyrazol-3-yl)pyridin-2-amine], the Ki was 0.4 nM.
In turn, `CC(C)n1nc(-c2cnc(N)c(OC(F)F)c2)cc1[C@H]1[C@@H]2CC3(CCO3)C[C@@H]21` (stereo partly drawn) [compound 92, 3-(difluoromethoxy)-5-(1-isopropyl-5-((1 R,5S,6r)-spiro[bicyclo [3.1.0]hexane-3,2′-oxetan]-6-yl)-1H-pyrazol-3-yl)pyridin-2-amine] came in with a Ki of 9.4 nM. This Ki lies about 24-fold higher than the previous one.
For the compound `CC(C)n1nc(-c2cnc(N)c(C(F)(F)F)c2)cc1[C@H]1[C@@H]2C[C@H](N3CCOC3=O)C[C@@H]21` [compound 59, 3-((1R,3r,5S,6r)-6-(3-(6-amino-5-(trifluoromethyl)pyridin-3-yl)-1-isopropyl-1H-pyrazol-5-yl)bicyclo[3.1.0]hexan-3-yl) oxazolidin-2-one], the Ki turned out to be 3.06 nM.

The term Ki denotes a measure of affinity in units of concentration, obtained from inhibition or displacement. A low value points to a stronger hold on the target.
